Data reported in ChEMBL document CHEMBL1201862, “PubChem BioAssay data set” (2004).
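Assay format: 96-well plates, 48-hour exposure. GI50 is the concentration that inhibits growth by half.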 Activity calls are given as the source filed them. No stated cut-off is given here; in the data, active = GI50 up to about 1.1 µM and inactive = higher.

Assays:
Experiment in all cases: DTP human tumour cell line panel, 48 h
SK-MEL-2 = tested on: SK-MEL-2
SR = tested on: SR
A549 = tested on: A549
NCI-H23 = tested on: NCI-H23
COLO 205 = tested on: COLO 205
KM12 = tested on: KM12
UO-31 = tested on: UO-31
MDA-N = tested on: MDA-N
UACC-257 = tested on: UACC-257
SN12C = tested on: SN12C
MCF7 = tested on: MCF7
786-0 = tested on: 786-0
MDA-MB-231 = tested on: MDA-MB-231
HOP-62 = tested on: HOP-62
SK-MEL-28 = tested on: SK-MEL-28
RXF 393 = tested on: RXF 393
NCI-H460 = tested on: NCI-H460
NCI-H522 = tested on: NCI-H522
A498 = tested on: A498
SF-295 = tested on: SF-295
Hs-578T = tested on: Hs-578T
MOLT-4 = tested on: MOLT-4
IGROV-1 = tested on: IGROV-1
T47D = tested on: T47D
K562 = tested on: K562
UACC-62 = tested on: UACC-62
HCT-116 = tested on: HCT-116
M14 = tested on: M14
HCT-15 = tested on: HCT-15
LOX IMVI = tested on: LOX IMVI
OVCAR-5 = tested on: OVCAR-5
HL-60 = tested on: HL-60
SW-620 = tested on: SW-620
HOP-92 = tested on: HOP-92
CCRF-CEM = tested on: CCRF-CEM
DU-145 = tested on: DU-145
OVCAR-4 = tested on: OVCAR-4
NCI-H226 = tested on: NCI-H226
U-251 = tested on: U-251
MDA-MB-435 = tested on: MDA-MB-435
PC-3 = tested on: PC-3
ACHN = tested on: ACHN
OVCAR-3 = tested on: OVCAR-3
BT-549 = tested on: BT-549
Malme-3M = tested on: Malme-3M
RPMI-8226 = tested on: RPMI-8226
SNB-75 = tested on: SNB-75
SK-MEL-5 = tested on: SK-MEL-5
TK-10 = tested on: TK-10
HCC 2998 = tested on: HCC 2998
EKVX = tested on: EKVX
SF-539 = tested on: SF-539
NCI/ADR-RES = tested on: NCI/ADR-RES
SF-268 = tested on: SF-268
SNB-19 = tested on: SNB-19
OVCAR-8 = tested on: OVCAR-8
HT-29 = tested on: HT-29
SK-OV-3 = tested on: SK-OV-3
CAKI-1 = tested on: CAKI-1

CC1(C)CCC[C@@]2(C)C1C(=O)[C@@H]1O[C@]1(C)[C@@H]2CO (some centres undefined)
GI50 (SK-MEL-2): 28.1 µM (inactive)
GI50 (SR): 0.587 µM (active)
GI50 (A549): 19.6 µM (inactive)
GI50 (NCI-H23): 16.3 µM (inactive)
GI50 (COLO 205): 18.4 µM (inactive)
GI50 (KM12): 29.4 µM (inactive)
GI50 (UO-31): 53.7 µM (inactive)
GI50 (MDA-N): 23.5 µM (inactive)
GI50 (UACC-257): 43.8 µM (inactive)
GI50 (SN12C): 25.5 µM (inactive)
GI50 (MCF7): > 100 µM (inactive)
GI50 (786-0): 23.2 µM (inactive)
GI50 (MDA-MB-231): 49 µM (inactive)
GI50 (HOP-62): 40.2 µM (inactive)
GI50 (SK-MEL-28): 13.7 µM (inactive)
GI50 (RXF 393): 25.6 µM (inactive)
GI50 (NCI-H460): 13.5 µM (inactive)
GI50 (NCI-H522): 22.6 µM (inactive)
GI50 (A498): 38.6 µM (inactive)
GI50 (SF-295): 18.2 µM (inactive)
GI50 (Hs-578T): 34.3 µM (inactive)
GI50 (MOLT-4): 39 µM (inactive)
GI50 (IGROV-1): 45.8 µM (inactive)
GI50 (T47D): 26.7 µM (inactive)
GI50 (K562): 27.3 µM (inactive)
GI50 (UACC-62): 37.2 µM (inactive)
GI50 (HCT-116): 19.7 µM (inactive)
GI50 (M14): 24.4 µM (inactive)
GI50 (HCT-15): 38 µM
GI50 (LOX IMVI): 19.8 µM (inactive)
GI50 (OVCAR-5): > 100 µM (inactive)
GI50 (HL-60): 17.4 µM (inactive)
GI50 (SW-620): 24.7 µM (inactive)
GI50 (HOP-92): 27.8 µM (inactive)
GI50 (CCRF-CEM): 11.4 µM (inactive)
GI50 (DU-145): 38.5 µM (inactive)
GI50 (OVCAR-4): 24.4 µM (inactive)
GI50 (NCI-H226): 33.3 µM (inactive)
GI50 (U-251): 14.8 µM (inactive)
GI50 (MDA-MB-435): 21 µM (inactive)
GI50 (PC-3): 35.4 µM (inactive)
GI50 (ACHN): 40.3 µM (inactive)
GI50 (OVCAR-3): 18.4 µM (inactive)
GI50 (BT-549): 16.9 µM (inactive)
GI50 (Malme-3M): 37.9 µM (inactive)
GI50 (RPMI-8226): 15.2 µM (inactive)
GI50 (SNB-75): 24.5 µM (inactive)
GI50 (SK-MEL-5): 46.2 µM (inactive)
GI50 (TK-10): 80 µM (inactive)
GI50 (HCC 2998): 20.4 µM (inactive)
GI50 (EKVX): 31.6 µM (inactive)
GI50 (SF-539): 37.8 µM (inactive)
GI50 (NCI/ADR-RES): 48.8 µM (inactive)
GI50 (SF-268): 26.2 µM (inactive)
GI50 (SNB-19): 24.4 µM (inactive)
GI50 (OVCAR-8): 27.3 µM (inactive)
GI50 (HT-29): 37.9 µM (inactive)
GI50 (SK-OV-3): 39.6 µM (inactive)

N=c1oc2c(Cl)cc(Cl)cc2cc1C(=O)Nc1cccc2ccccc12
GI50 (SR): 12.4 µM (inactive)
GI50 (A549): 6.55 µM (inactive)
GI50 (NCI-H23): 16.5 µM (inactive)
GI50 (COLO 205): 7.57 µM (inactive)
GI50 (KM12): 53.8 µM (inactive)
GI50 (UO-31): 10.2 µM (inactive)
GI50 (MDA-N): 33 µM (inactive)
GI50 (UACC-257): > 100 µM (inactive)
GI50 (SN12C): 3.58 µM (inactive)
GI50 (MCF7): > 53.6 µM (inactive)
GI50 (786-0): 5.71 µM (inactive)
GI50 (MDA-MB-231): 3.78 µM (inactive)
GI50 (HOP-62): 7.98 µM (inactive)
GI50 (SK-MEL-28): > 80.9 µM (inactive)
GI50 (RXF 393): 16.7 µM (inactive)
GI50 (NCI-H460): 5.01 µM (inactive)
GI50 (NCI-H522): 8.17 µM (inactive)
GI50 (A498): 7.62 µM (inactive)
GI50 (SF-295): 18.7 µM (inactive)
GI50 (Hs-578T): 7.94 µM (inactive)
GI50 (MOLT-4): 7.48 µM (inactive)
GI50 (IGROV-1): 5.32 µM (inactive)
GI50 (T47D): 5.2 µM (inactive)
GI50 (K562): 13.3 µM (inactive)
GI50 (UACC-62): 40.6 µM (inactive)
GI50 (HCT-116): 4.79 µM (inactive)
GI50 (M14): > 44.7 µM (inactive)
GI50 (HCT-15): 10.3 µM
GI50 (LOX IMVI): 4.7 µM (inactive)
GI50 (OVCAR-5): 21.7 µM (inactive)
GI50 (HL-60): 18.8 µM (inactive)
GI50 (SW-620): 3.62 µM (inactive)
GI50 (HOP-92): 15.3 µM (inactive)
GI50 (CCRF-CEM): 3.57 µM (inactive)
GI50 (DU-145): > 89.9 µM (inactive)
GI50 (OVCAR-4): 2.49 µM (inactive)
GI50 (NCI-H226): 19.3 µM (inactive)
GI50 (U-251): 2.73 µM (inactive)
GI50 (MDA-MB-435): 27 µM (inactive)
GI50 (PC-3): 24.2 µM (inactive)
GI50 (ACHN): 3.52 µM (inactive)
GI50 (OVCAR-3): 4.61 µM (inactive)
GI50 (BT-549): 30.1 µM (inactive)
GI50 (Malme-3M): 26.3 µM (inactive)
GI50 (RPMI-8226): 10 µM (inactive)
GI50 (SNB-75): 3.2 µM (inactive)
GI50 (SK-MEL-5): 37.9 µM (inactive)
GI50 (TK-10): 2.33 µM (inactive)
GI50 (HCC 2998): 6.93 µM (inactive)
GI50 (CAKI-1): 10.6 µM (inactive)
GI50 (EKVX): 8.93 µM (inactive)
GI50 (NCI/ADR-RES): 4.93 µM (inactive)
GI50 (SF-268): 18 µM (inactive)
GI50 (SNB-19): 19.5 µM (inactive)
GI50 (OVCAR-8): 3.44 µM (inactive)
GI50 (HT-29): 39.4 µM (inactive)
GI50 (SK-OV-3): 15.9 µM (inactive)

COc1ccc2c3c1O[C@H](c1ccc(O)cc1)[C@H]3[N+](C)(C)CC2
GI50 (SK-MEL-2): > 100 µM (inactive)
GI50 (SR): > 100 µM (inactive)
GI50 (A549): > 100 µM (inactive)
GI50 (NCI-H23): 46.6 µM (inactive)
GI50 (COLO 205): 68.4 µM (inactive)
GI50 (KM12): > 100 µM (inactive)
GI50 (UO-31): > 100 µM (inactive)
GI50 (MDA-N): > 100 µM (inactive)
GI50 (UACC-257): > 100 µM (inactive)
GI50 (SN12C): > 100 µM (inactive)
GI50 (MCF7): > 100 µM (inactive)
GI50 (786-0): > 100 µM (inactive)
GI50 (MDA-MB-231): > 100 µM (inactive)
GI50 (HOP-62): > 100 µM (inactive)
GI50 (SK-MEL-28): > 100 µM (inactive)
GI50 (RXF 393): > 100 µM (inactive)
GI50 (NCI-H460): > 100 µM (inactive)
GI50 (NCI-H522): 42.8 µM (inactive)
GI50 (A498): > 100 µM (inactive)
GI50 (SF-295): > 100 µM (inactive)
GI50 (Hs-578T): > 100 µM (inactive)
GI50 (MOLT-4): > 100 µM (inactive)
GI50 (IGROV-1): > 100 µM (inactive)
GI50 (T47D): > 100 µM (inactive)
GI50 (K562): 34.1 µM (inactive)
GI50 (UACC-62): > 100 µM (inactive)
GI50 (HCT-116): > 100 µM (inactive)
GI50 (M14): > 100 µM (inactive)
GI50 (HCT-15): > 100 µM
GI50 (LOX IMVI): > 100 µM (inactive)
GI50 (OVCAR-5): > 100 µM (inactive)
GI50 (HL-60): 34.3 µM (inactive)
GI50 (SW-620): > 100 µM (inactive)
GI50 (HOP-92): > 100 µM (inactive)
GI50 (CCRF-CEM): > 100 µM (inactive)
GI50 (DU-145): > 100 µM (inactive)
GI50 (OVCAR-4): 5.51 µM (inactive)
GI50 (NCI-H226): > 100 µM (inactive)
GI50 (U-251): > 100 µM (inactive)
GI50 (MDA-MB-435): > 100 µM (inactive)
GI50 (PC-3): 75.5 µM (inactive)
GI50 (ACHN): > 100 µM (inactive)
GI50 (OVCAR-3): > 100 µM (inactive)
GI50 (BT-549): > 100 µM (inactive)
GI50 (Malme-3M): > 100 µM (inactive)
GI50 (RPMI-8226): 47.4 µM (inactive)
GI50 (SNB-75): > 100 µM (inactive)
GI50 (SK-MEL-5): 86.3 µM (inactive)
GI50 (TK-10): > 100 µM (inactive)
GI50 (HCC 2998): > 100 µM (inactive)
GI50 (CAKI-1): > 100 µM (inactive)
GI50 (EKVX): > 100 µM (inactive)
GI50 (SF-539): > 100 µM (inactive)
GI50 (NCI/ADR-RES): > 100 µM (inactive)
GI50 (SF-268): > 100 µM (inactive)
GI50 (SNB-19): 49.2 µM (inactive)
GI50 (OVCAR-8): > 100 µM (inactive)
GI50 (HT-29): > 100 µM (inactive)
GI50 (SK-OV-3): > 100 µM (inactive)
